The assay addresses T1, Src kinase (Homo sapiens, UniProt P12931).
T1 construct: purchased Upstate Bioteolnology (sic; Upstate Biotechnology); later HMR stock 27597-019E1 #14-117
Put plainly: Phosphorylation assay of Src kinase inhibitors (radiometric, 96 well filter plate). Type of assay: biochemical. The following applies: duplicates, tested in the range of 400-0.098 µM; 10 µM peptide substrate (FIYGAFKKKKNH2), 5 µM unlabeled ATP, room temperature 30 min; read-out: IC50. The protocol:
The present invention provides novel compounds of Formulae I through XVIII discussed above. The following compounds which fall within Formulae I through XVIII are characterized by structure, IUPAC name and activity using phosphorylation assay for protein tyrosine Src kinase.
Phosphorylation Assay of Src Kinase Inhibitors
The activity of Src kinase was measured in a 96 well plate phosphorylation assay where the transfer of gamma phosphate from ATP to peptide substrate was measured radiometrically. […] Ki values were determined experimentally for some of the inhibitors. The phosphocellulose filter plates (Millipore catalog #MAPH NOB) were prewet prior to the phosphorylation assay by addition of 100 1 per well of 30 mM MES buffer+0.4 mg/ml BSA. After a 20-minute incubation, the buffer was removed completely via a Millipore vacuum manifold. The phosphorylation assay was then set up in the filter plates in a total volume per well of 60 1. The 60 1 consisted of compound (see concentration ranges above), a 1:100 dilution of Src kinase (originally Upstate Bioteolnology, #14-117; later HMR stock 27597-019E1) or assay buffer alone (for no enzyme control wells), 10 M peptide substrate (FIYGAFKKKKNH2), 5 M unlabeled ATP and a 1:500 dilution of P-ATP (New England Nuclear, catalog #NEG-602H, 2000 Ci/mmol). The reaction was mixed and incubated at room temperature for 30 min. The kinase reactions were stopped by addition of 150 mM H3PO4 and incubated for 10 minutes. The filter plate wells were filtered and washed seven times with 200 1 per well of 150 mM H3PO4. Finally, the filter plate was placed into a Packard plate adapter (Packard catalog #600517B), 35 1 of Microscint-20 (Packard catalog #6013621) was added to each well, the plate was sealed (TopSeal A sealers; Packard catalog #6005185) and counted on a Packard TopCount.

24 compounds from patent publication US20040014676A1, “SRC kinase inhibitors useful for treating osteoporosis” (priority 2001, published 2004) can be followed below.

One may read the IC50 as the concentration that inhibits the measured activity by half.

T1 sequence (P12931 whole entry): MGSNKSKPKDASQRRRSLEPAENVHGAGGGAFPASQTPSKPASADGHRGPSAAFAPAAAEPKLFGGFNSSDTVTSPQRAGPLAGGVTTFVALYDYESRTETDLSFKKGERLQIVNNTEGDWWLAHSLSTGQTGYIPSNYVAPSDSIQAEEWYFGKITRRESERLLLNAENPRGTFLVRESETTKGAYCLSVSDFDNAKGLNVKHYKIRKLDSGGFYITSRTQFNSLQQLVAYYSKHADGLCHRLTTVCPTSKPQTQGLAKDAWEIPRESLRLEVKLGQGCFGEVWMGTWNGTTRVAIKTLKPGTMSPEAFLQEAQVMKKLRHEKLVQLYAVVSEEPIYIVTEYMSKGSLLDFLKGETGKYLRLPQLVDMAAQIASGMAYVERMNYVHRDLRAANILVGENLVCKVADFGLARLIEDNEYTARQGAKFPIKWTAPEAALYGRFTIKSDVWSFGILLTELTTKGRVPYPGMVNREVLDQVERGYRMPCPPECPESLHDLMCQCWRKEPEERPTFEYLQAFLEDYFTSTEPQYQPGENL

As for `NC(=O)CNC(=O)c1cc2ccccc2cc1OCCCCNC(=O)[C@H](Cc1ccc(O)cc1)NC(=O)c1ccccc1` [Example 17, 3-[4-[[2(S)-(N-BENZOYLAMINO)-3-(4- HYDROXYPHENYL)-1-OXOPROPYL]- AMINO]BUTOXY]-NAPHTHALENE-2- [N-(2-AMIDOMETHYL)]CARBOXAMIDE], the IC50 stood at 23 µM. As for `NC(=O)CNC(=O)c1cc2ccccc2cc1OCCCCNC(=O)C1NCCC1c1ccc(O)cc1` [Example 22, 3-[N-[[[(3-(S)4-HYDROXYPHENYL)- TETRAHYDROPYRROL-2-YL]- CARBONYL]AMINO]BUTOXY]- NAPHTHALENE-2-[N-(2- AMIDOMETHYL)]CARBOXAMIDE], the figure is 11 µM.

As to `NC(=O)C(CCC(=O)O)NC(=O)c1cc2ccccc2cc1OCCCCNC(=O)[C@@H](N)Cc1ccc(O)cc1` (stereo partly drawn) [Example 12, 3-[4-[[2(S)-AMINO-3-(4-HYDROXY- PHENYL)-1-OXOPROPYL]AMINO]- BUTOXY]-NAPHTHALENE-2-[N- [(AMIDO)(2-CARBOXYEHTYL)- METHYL]]CARBOXAMIDE], the IC50 stood at 308 µM. Turning to `CCC(C)[C@H](N)C(=O)NC(Cc1ccc(O)cc1)C(=O)NCCCCOc1cc2ccccc2cc1C(=O)NCC(N)=O` (stereo partly drawn) [Example 19], the IC50 was 12 µM.

In the case of `NCC(=O)NCCCCOc1cc2ccccc2cc1C(=O)NCC(N)=O` [Example 64, 3-[4-[[(1-OXO-2-AMINO)ETHYL]- AMINO]BUTOXY]-NAPHTHALENE-2- (N-ACETAMIDO)CARBOXAMIDE], the IC50 was 68 µM. Turning to `CN[C@@H](Cc1ccccc1)C(=O)NCCCCOc1cc2ccccc2cc1C(=O)NCC(N)=O` [Example 67, 3-[4-[[(1-OXO-2(S)-METHYLAMINO-3- PHENYL)PROPYL]AMINO]BUTOXY]- NAPHTHALENE-2-(N-ACETAMIDO)- CARBOXAMIDE], the IC50 is 2.3 µM. As for `NC(=O)CNC(=O)c1cc2ccccc2cc1OCCCCNC(=O)[C@H](N)Cc1ccccc1` [Example 53, 3-[4-[[[2(R)-AMINO-3-PHENYL-1- OXO]PROPYL]AMINO]BUTOXY]- NAPHTHALENE-2-(N-ACETAMIDO)- CARBOXAMIDE], the figure is 1.4 µM.

Turning to `NC(=O)CNC(=O)c1cc2ccccc2cc1OCCCCNC(=O)[C@@H](N)Cc1ccc(O)cc1` [Example 5, 3-[4-[[2(S)-AMINO-3-(4-HYDROXY- PHENYL)-1-OXOPROPYL]AMINO]- BUTOXY]-2-[N-ACETAMIDO]- NAPHTHALENECARBOXAMIDE], the IC50 is 0.47 µM. With `NC(=O)CNC(=O)c1cc2ccccc2cc1/N=C(/OCCCCNC(=O)C(N)Cc1ccc(O)cc1)C(F)(F)F` (stereo not drawn) [Example 127, 3-[[1-TRIFLUOROMETHYL][1-[4-[[[1- OXO-2-AMINO-3-HYDROXYPHENYL)]- PROPYL]AMINO]BUTOXY]]- METHYLENIMINO]-NAPHTHALENE-2- [N-ACETAMIDO]CARBOXAMIDE], the IC50 was 19 µM. As for `NC(=O)CCNC(=O)c1cc2ccccc2cc1OCCCCNC(=O)[C@@H](N)Cc1ccc(O)cc1` [Example 102], the figure is 52 µM; as for `NC(=O)CNC(=O)c1cc2ccccc2cc1OCCCCNC(=O)[C@H](Cc1ccc(O)cc1)NC(=O)OCc1ccccc1` [Example 18, 3-[4-[[2(S)-(N-BENZYLOXY- CARBONYL)AMINO-3-(4-HYDROXY- PHENYL)-1-OXOPROPYL]AMINO]- BUTOXY]-NAPHTHALENE-2-[N-(2- AMIDOMETHYL)]CARBOXAMIDE], 32 µM; as for `NC(=O)Cc1nc(-c2cc3ccccc3cc2OCCCCNC(=O)[C@@H](N)Cc2csc3ccccc23)no1` [Compound 156, (2S)-2-amino-3-benzo[b]thiophen-3-yl-N-(4-{3-[5-(carbamoylmethyl)(1,2,4-oxadiazol-3-yl)](2-naphthyloxy)}butyl)propanamide], 20 µM. Turning to `NC(=O)CNC(=O)c1cc2ccccc2cc1OCCCCNC(=O)[C@@H](N)C(c1ccccc1)c1ccccc1` [Example 39, 3-[[4-[(2(S)-AMINO-3,3-BISPHENYL-1- OXO)PROPYL]AMINO]BUTOXY]- NAPHTHALENE-2-(N-ACETAMIDO)- CARBOXAMIDE], the IC50 is 1.7 µM. For the compound `NC(=O)CNC(=O)c1cc2ccccc2cc1OCCCCNC(=O)[C@H](Cc1ccc(O)cc1)NC=O` [Example 72, 3-[4-[[[1-OXO-2-(N-FORMYLAMINO)-3- (4-HYDROXYPHENYL)]PROPYL]- (S)AMINO]BUTOXY]-NAPHTHALENE- 2-(N-ACETAMIDO)CARBOXAMIDE], the IC50 worked out at 6 µM. Regarding `CCNC(=O)CNC(=O)c1cc2ccccc2cc1OCCCCN(C)C(=O)C(N)Cc1csc2ccccc12` (stereo not drawn) [Example 154, 3-[[[4-[3-(BENZOTHIOPHEN-3-YL)-2- AMINO-1-OXO]PROPYL](N-METHYL)- AMINO]BUTOXY]-NAPHTHALENE-2- [(N-(N-ETHYL)ACETAMIDO]- CARBOXAMIDE], the IC50 was found to be 4 µM.

On to `NC(=O)CNC(=O)c1cc2ccccc2cc1OCCCCNC(=O)C1(N)Cc2ccccc2C1` [Example 40, 3-[4-[n-[1-OXO-2-(2-AMINOINDAN-2- YL)]ETHYL]-AMINOBUTOXY]- NAPHTHALENE-2-(N- ACETAMIDO)CARBOXAMIDE], for which the IC50 is 12 µM.

For `NC(=O)CNC(=O)c1cc2ccccc2cc1OCCCCNC(=O)[C@@H](N)Cc1cccs1` [Example 55, 3-[4-[[[2(S)-AMINO-3-(THIOPHEN-2-YL)- 1-OXO]PROPYL]AMINO]BUTOXY]- NAPHTHALENE-2-(N-ACETAMIDO)- CARBOXAMIDE], the IC50 stood at 1.35 µM.

`NC(=O)CNC(=O)c1cc2ccccc2cc1OCCCC(NC(=O)[C@H](N)Cc1csc2ccccc12)C(=O)O` (stereo partly drawn) [Example 97, 3-[[4-[[1-OXO-2(S)-AMINO-3-(BENZO- THIOPHEN-3-YL)]PROPYL]AMINO][4- CARBOXY]BUTOXY]NAPHTHALENE-2- (N-ACETAMIDO)CARBOXAMIDE]: the IC50 was determined as 26 µM. With `NC(=O)CNC(=O)c1cc2ccccc2cc1C(=O)NCCCNC(=O)[C@@H](N)Cc1ccc(O)cc1` [Example 89, 3-[[[3-[[[1-OXO-2(S)-AMINO-3- HYDROXYPHENYL)]PROPYL]AMINO]- PROPYL]AMINO]CARBONYL]- NAPHTHALENE-2-ACETAMIDO)- CARBOXAMID], the IC50 was 252 µM.

Turning to `NC(=O)CNC(=O)c1cc2ccccc2cc1OCCCCNC(=O)[C@@H](N)Cc1ccc(Cl)cc1` [Example 42, 3-[[4-[(2(S)-AMINO-3-(4-CHLORO- PHENYL)-1-OXO)PROPYL]AMINO]- BUTOXY]-NAPHTHALENE-2- (N-ACETAMIDO)CARBOXAMIDE], the IC50 turned out to be 0.88 µM.

Turning to `NC(=O)CNC(=O)c1cc2ccccc2cc1OCCCCNC(=O)C(=C/c1ccc(O)cc1)/C(N)=N/O` [Example 150, 3-[[4-[N-[1-OXO-2-[(HYDROXYIMINO)- (AMINO)METHYL]-3-(4-HYDROXY- PHENYL)]]PROP-2-ENYL]AMINO]- BUTOXY]-NAPHTHALENE-2-(N- ACETAMIDO)CARBOXAMIDE], the IC50 was 16 µM.

Regarding `NC(=O)CNC(=O)c1cc2ccccc2cc1OCCCCNC(=O)[C@@H](N)Cc1cccnc1` [Example 48, 3-[[4-[[2(S)-AMINO-3-(PYRIDIN-3-YL)-1- OXO]PROPYL]AMINO]BUTOXY]- NAPHTHALENE-2-(N-ACETAMIDO)- CARBOXAMIDE], the IC50 was found to be 9.6 µM. The value for `NC(=O)c1cc2ccccc2cc1OCCCCNC(=O)[C@@H](N)Cc1ccc(O)cc1` [Example 6, 3-[4-[[2(S)-AMINO-3-(4-HYDROXY- PHENYL)-1-OXOPROPYL]AMINO]- BUTOXY]-NAPHTHALENE-2- CARBOXAMIDE] was 47 µM; that for `NC(=O)CNC(=O)c1cc2ccccc2cc1OCc1ccc(N)cc1` [Example 119, 2-[4-AMINOBENZYLOXY]- NAPHTHALENE-3-[N-ACETAMIDO]- CARBOXAMIDE] was 25 µM.
